Test system: cytokines and interferon-inducible genes
Assay: mRNA expression of cytokines and interferon-inducible genes in whole blood of healthy woodchucks (real time PCR)
Assay type: in vivo
Conditions: for IDO mRNA expression in peripheral blood, Mean / IDO mRNA expression, Fold-change from T0 / IFN-a mRNA expression in peripheral blood, Mean / IFN-a mRNA expression, Fold-change from T0 / IFN-γ mRNA expression in peripheral blood, Mean / IFN-γ mRNA expression, Fold-change from T0 / IL-2 mRNA expression in peripheral blood, Mean / IL-2 mRNA expression, Fold-change from T0 / IL-6 mRNA expression in peripheral blood, Mean / IL-6 mRNA expression, Fold-change from T0 / IL-10 mRNA expression in peripheral blood, Mean / IL-10 mRNA expression, Fold-change from T0 / IL-12 mRNA expression in peripheral blood, Mean / IL-12 mRNA expression, Fold-change from T0 / MxA mRNA expression in peripheral blood, Mean / MxA mRNA expression, Fold-change from T0 / TNF-a mRNA expression in peripheral blood, Mean / TNF-a mRNA expression, Fold-change from T0 / 2′5′-OAS mRNA expression in peripheral blood, Mean / 2′5′-OAS mRNA expression, Fold-change from T0: oral 0.5 mg/kg
Protocol: Compound A was administered orally to adult, WHV-negative woodchucks at two different doses. Three male woodchucks received Compound A at 0.05 mg/kg and three other male woodchucks at 0.5 mg/kg. Whole blood samples (4 mls) were collected from each woodchuck prior to dosing at T0, and then at 4, 8, 12, and 24 hours post-dose using EDTA-containing collection tubes.
The induction of an immune response in woodchucks following administration of Compound A was determined by measuring the mRNA expression of cytokines and interferon-inducible genes in whole blood samples collected at different time points. Total RNA was isolated using the QIAamp RNA Blood Mini Kit (Qiagen) according to the manufacturer's specifications. RNA was eluted into 40 μl nuclease-free water and stored at −70° C. The concentration of RNA was determined spectrophotometrically at OD 260 nm. Two μg of RNA were treated with DNase I (Invitrogen) and reverse transcribed to cDNA with MultiScribe Reverse Transcriptase (Applied Biosystems) using random hexamers. Triplicates of 2 μl cDNA were amplified by real time PCR on an ABI PRISM 7000 Sequence Detection instrument (Applied Biosystems) using SYBR GREEN Master Mix (Applied Biosystems) and woodchuck-specific primers. Amplified target genes included IFN-α, IFN-γ, TNF-α, IL-2, IL-6, IL-10 IL-12, 2′5′-OAS, IDO, and MxA. Woodchuck β-actin mRNA expression was used to normalize target gene expression. Transcription levels of woodchuck cytokines and interferon-inducible genes were represented by the formula 2ΔCt, where ΔCt indicates the difference in the threshold cycle between β-actin and target gene expression. Results were further represented as a fold-change from the transcription level at T0.

Q: Which results are given for `CCCCOc1nc(N)c2nc(O)n(Cc3cccc(CN4CCCC4)c3)c2n1` [Compound A, 6-amino-2-butoxy-9-(3-(pyrrolidin-1-ylmethyl)benzyl)-9H-purin-8-ol]?
A: IDO mRNA expression in peripheral blood, Mean (4 hrs): 22.67; IDO mRNA expression, Fold-change from T0 (4 hrs): 9.1 fold; IFN-a mRNA expression in peripheral blood, Mean (4 hrs): 19.14; IFN-a mRNA expression, Fold-change from T0 (4 hrs): 3.9 fold; IFN-γ mRNA expression in peripheral blood, Mean (4 hrs): 2.80; IFN-γ mRNA expression, Fold-change from T0 (4 hrs): 2.6 fold; IL-2 mRNA expression in peripheral blood, Mean (4 hrs): 4.32; IL-2 mRNA expression, Fold-change from T0 (4 hrs): 2.2 fold; IL-6 mRNA expression in peripheral blood, Mean (4 hrs): 21.84; IL-6 mRNA expression, Fold-change from T0 (4 hrs): 4.6 fold; IL-10 mRNA expression in peripheral blood, Mean (4 hrs): 4.01; IL-10 mRNA expression, Fold-change from T0 (4 hrs): 1.5 fold; IL-12 mRNA expression in peripheral blood, Mean (4 hrs): 5.74; IL-12 mRNA expression, Fold-change from T0 (4 hrs): 3.8 fold; MxA mRNA expression in peripheral blood, Mean (4 hrs): 5.96; MxA mRNA expression, Fold-change from T0 (4 hrs): 3.6 fold; TNF-a mRNA expression in peripheral blood, Mean (4 hrs): 43.18; TNF-a mRNA expression, Fold-change from T0 (4 hrs): 6.2 fold; 2′5′-OAS mRNA expression in peripheral blood, Mean (8 hrs): 41.13; 2′5′-OAS mRNA expression, Fold-change from T0 (8 hrs): 8.3 fold; IDO mRNA expression in peripheral blood, Mean (8 hrs): 30.62; IDO mRNA expression, Fold-change from T0 (8 hrs): 11.6 fold; IFN-a mRNA expression in peripheral blood, Mean (8 hrs): 48.85; IFN-a mRNA expression, Fold-change from T0 (8 hrs): 10.4 fold; IFN-γ mRNA expression in peripheral blood, Mean (8 hrs): 7.81; IFN-γ mRNA expression, Fold-change from T0 (8 hrs): 6.7 fold; IL-2 mRNA expression in peripheral blood, Mean (8 hrs): 3.12; IL-2 mRNA expression, Fold-change from T0 (8 hrs): 2.0 fold; IL-6 mRNA expression in peripheral blood, Mean (8 hrs): 18.57; IL-6 mRNA expression, Fold-change from T0 (8 hrs): 4.6 fold; IL-10 mRNA expression in peripheral blood, Mean (8 hrs): 17.31; IL-10 mRNA expression, Fold-change from T0 (8 hrs): 6.6 fold; IL-12 mRNA expression in peripheral blood, Mean (8 hrs): 6.86; IL-12 mRNA expression, Fold-change from T0 (8 hrs): 4.2 fold; MxA mRNA expression in peripheral blood, Mean (8 hrs): 12.86; MxA mRNA expression, Fold-change from T0 (8 hrs): 7.9 fold; TNF-a mRNA expression in peripheral blood, Mean (8 hrs): 31.19; TNF-a mRNA expression, Fold-change from T0 (8 hrs): 4.5 fold; 2′5′-OAS mRNA expression in peripheral blood, Mean (12 hrs): 884.87; 2′5′-OAS mRNA expression, Fold-change from T0 (12 hrs): 185.6 fold; IDO mRNA expression in peripheral blood, Mean (12 hrs): 89.01; IDO mRNA expression, Fold-change from T0 (12 hrs): 37.0 fold; IFN-a mRNA expression in peripheral blood, Mean (12 hrs): 7.12; IFN-a mRNA expression, Fold-change from T0 (12 hrs): 1.5 fold; IFN-γ mRNA expression in peripheral blood, Mean (12 hrs): 4.36; IFN-γ mRNA expression, Fold-change from T0 (12 hrs): 3.8 fold; IL-6 mRNA expression in peripheral blood, Mean (12 hrs): 6.25; IL-6 mRNA expression, Fold-change from T0 (12 hrs): 1.4 fold; IL-10 mRNA expression in peripheral blood, Mean (12 hrs): 14.92; IL-10 mRNA expression, Fold-change from T0 (12 hrs): 5.6 fold; IL-12 mRNA expression in peripheral blood, Mean (12 hrs): 49.93; IL-12 mRNA expression, Fold-change from T0 (12 hrs): 30.1 fold; MxA mRNA expression in peripheral blood, Mean (12 hrs): 71.77; MxA mRNA expression, Fold-change from T0 (12 hrs): 45.3 fold; TNF-a mRNA expression in peripheral blood, Mean (12 hrs): 62.30; TNF-a mRNA expression, Fold-change from T0 (12 hrs): 9.0 fold; 2′5′-OAS mRNA expression in peripheral blood, Mean (24 hrs): 64.27; 2′5′-OAS mRNA expression, Fold-change from T0 (24 hrs): 14.4 fold; IDO mRNA expression in peripheral blood, Mean (24 hrs): 1217.20; IDO mRNA expression, Fold-change from T0 (24 hrs): 454.2 fold; IFN-a mRNA expression in peripheral blood, Mean (24 hrs): 4.15; IFN-a mRNA expression, Fold-change from T0 (24 hrs): 0.9 fold; IFN-γ mRNA expression in peripheral blood, Mean (24 hrs): 2.16; IFN-γ mRNA expression, Fold-change from T0 (24 hrs): 1.9 fold; IL-2 mRNA expression in peripheral blood, Mean (24 hrs): 13.38; IL-2 mRNA expression, Fold-change from T0 (24 hrs): 5.9 fold; IL-6 mRNA expression in peripheral blood, Mean (24 hrs): 4.75; IL-6 mRNA expression, Fold-change from T0 (24 hrs): 1.2 fold; IL-10 mRNA expression in peripheral blood, Mean (24 hrs): 8.74; IL-10 mRNA expression, Fold-change from T0 (24 hrs): 3.3 fold; IL-12 mRNA expression in peripheral blood, Mean (24 hrs): 11.55; IL-12 mRNA expression, Fold-change from T0 (24 hrs): 7.0 fold; MxA mRNA expression in peripheral blood, Mean (24 hrs): 758.52; MxA mRNA expression, Fold-change from T0 (24 hrs): 518.8 fold; TNF-a mRNA expression in peripheral blood, Mean (24 hrs): 30.71; TNF-a mRNA expression, Fold-change from T0 (24 hrs): 4.5 fold; mRNA expression of IFN-α, IFN-γ, TNF-alpha, IL-2, IL-6, IL-10, IL-12, 2′5′-OAS, IDO and MxA (oral 0.05 and 0.5 mg/kg): induced dose-dependent increases in the mRNA expression; time of maximal mRNA expression of IFN-α, IFN-γ, IL-6, and IL-10 (oral dosing): 8 hours post-dose; time of maximal mRNA expression of IL-2, IDO, and MxA (oral dosing): 24 hours post-dose; time of maximal mRNA expression of TNF-α, IL-12, and 2′5′-OAS (oral dosing): 12 hours post-dose

— patent publication US20110150836A1, “METHODS OF TREATING HBV AND HCV INFECTION” (Gilead Sciences, Inc., priority 2009, published 2011)
